Values after ≈ are worked out from the molar mass of the structure shown.
What was measured:
[1] = tested on: Acinetobacter baumannii 20-1; test: microbe, parasite or virus in culture; assay type: cell-based; conditions: 201; Acinetobacter baumannii 20-1; determined by Sichuan Primed Shines Bio-tech, similar protocol; read-out: MIC
Procedure: (§1) For MIC determination, Staphylococcus aureus ATCC25923, Bacillus subtilis 168, Micrococcus luteus DSM1790, Enterococcus faecalis OG1RF, Enterococcus faecium MCC2763, Escherichia coli DH5α and Pseudomonas aeruginosa PAO1 were used as indicator strains. Nisin and vancomycin were used as positive controls. A dilution series of massatide A, massatide B, vancomycin (16, 8, 4, 2, 1, 0.5, 0.25, 0.125, 0.0625, 0.0313 μg/mL) and sistertide A1, kebanetide A1, kebanetide A2, nisin (64, 32, 16, 8, 4, 2, 1, 0.5, 0.25, 0.125 μg/mL) were prepared in 96-well plate from 1–10th column. The indicator strains were added to the compound-containing well. The indicator strain culture with no antibiotics was prepared in the 11th column. The 12th column was filled with 200 μL empty MHB medium. The 96-well plate was incubated at 37 °C for 20 h (30 °C for M. luteus and B. subtilis). The OD600 was detected on MULTISKAN Sky (Thermo Scientific) and MIC values were determined. The MIC values of clinical isolates were determined by Sichuan Primed Shines Bio-tech Co., Ltd. (China) following similar protocol. Levofloxacin was used as a positive control.

[2] = tested on: Acinetobacter baumannii 20-2; test: microbe, parasite or virus in culture; assay type: cell-based; conditions: 202; Acinetobacter baumannii 20-2; determined by Sichuan Primed Shines Bio-tech, similar protocol; read-out: MIC
Procedure: as §1

[3] = tested on: Enterococcus faecalis 19-1; test: microbe, parasite or virus in culture; assay type: cell-based; conditions: 191; Enterococcus faecalis 19-1; determined by Sichuan Primed Shines Bio-tech, similar protocol; read-out: MIC
Procedure: as §1

[4] = tested on: Klebsiella pneumoniae 15-1; test: microbe, parasite or virus in culture; assay type: cell-based; conditions: 151; Klebsiella pneumoniae 15-1; determined by Sichuan Primed Shines Bio-tech, similar protocol; read-out: MIC
Procedure: as §1

[5] = tested on: Klebsiella pneumoniae ATCC700603; test: microbe, parasite or virus in culture; assay type: cell-based; conditions: Klebsiella pneumoniae ATCC700603; determined by Sichuan Primed Shines Bio-tech, similar protocol; read-out: MIC
Procedure: as §1

LRSA 20-1 = test: microbe, parasite or virus in culture; assay type: cell-based, Staphylococcus aureus; conditions: Staphylococcus aureus; LRSA 20-1 (linezolid-resistant S. aureus); determined by Sichuan Primed Shines Bio-tech, similar protocol; read-out: MIC
Procedure: as §1

MRSA 15-1 = test: microbe, parasite or virus in culture; assay type: cell-based, Staphylococcus aureus; conditions: Staphylococcus aureus; MRSA 15-1 (methicillin-resistant S. aureus); determined by Sichuan Primed Shines Bio-tech, similar protocol; read-out: MIC
Procedure: as §1

MRSA ATCC33591 = test: microbe, parasite or virus in culture; assay type: cell-based, Staphylococcus aureus; conditions: Staphylococcus aureus; MRSA ATCC33591; determined by Sichuan Primed Shines Bio-tech, similar protocol; read-out: MIC
Procedure: as §1

MRSA ATCC43300 = test: microbe, parasite or virus in culture; assay type: cell-based, Staphylococcus aureus; conditions: Staphylococcus aureus; MRSA ATCC43300; determined by Sichuan Primed Shines Bio-tech, similar protocol; read-out: MIC
Procedure: as §1

VMSA ATCC700699 = test: microbe, parasite or virus in culture; assay type: cell-based, Staphylococcus aureus; conditions: Staphylococcus aureus; VMSA ATCC700699 (vancomycin-intermediate S. aureus); determined by Sichuan Primed Shines Bio-tech, similar protocol; read-out: MIC
Procedure: as §1

VMSA ATCC700788 = test: microbe, parasite or virus in culture; assay type: cell-based, Staphylococcus aureus; conditions: Staphylococcus aureus; VMSA ATCC700788 (vancomycin-intermediate S. aureus); determined by Sichuan Primed Shines Bio-tech, similar protocol; read-out: MIC
Procedure: as §1

LREfa 20-1 = test: microbe, parasite or virus in culture; assay type: cell-based, Enterococcus faecalis; conditions: Enterococcus faecalis, 201; LREfa 20-1 (linezolid-resistant E. faecalis); determined by Sichuan Primed Shines Bio-tech, similar protocol; read-out: MIC
Procedure: as §1

VREfa ATCC51575 = test: microbe, parasite or virus in culture; assay type: cell-based, Enterococcus faecalis; conditions: Enterococcus faecalis; VREfa ATCC51575 (vancomycin-resistant E. faecalis); determined by Sichuan Primed Shines Bio-tech, similar protocol; read-out: MIC
Procedure: as §1

Bacillus subtilis 168 = test: microbe, parasite or virus in culture; assay type: cell-based; conditions: Bacillus subtilis, 168, 20 h
Procedure: as §1

[6] = tested on: Enterococcus faecalis OG1RF; test: microbe, parasite or virus in culture; assay type: cell-based; conditions: Enterococcus faecalis, OG1RF, 20 h
Procedure: as §1

[7] = tested on: Enterococcus faecium MCC2763; test: microbe, parasite or virus in culture; assay type: cell-based; conditions: Enterococcus faecium, MCC2763, 20 h
Procedure: as §1

[8] = tested on: Micrococcus luteus DSM1790; test: microbe, parasite or virus in culture; assay type: cell-based; conditions: Micrococcus luteus, DSM1790, 20 h
Procedure: as §1

[9] = tested on: Staphylococcus aureus ATCC25923; test: microbe, parasite or virus in culture; assay type: cell-based; conditions: Staphylococcus aureus, ATCC25923, 20 h
Procedure: as §1

S. aureus ATCC 25923 [10] = test: Lysis of S. aureus culture; assay type: cell-based, Staphylococcus aureus; conditions: S. aureus ATCC 25923 culture OD600 1.0, 10×MIC, 24 h
Procedure: Growth kinetics of S. aureus
Massatide A or B was prepared in a 96-well plate at the concentration of 8×MIC, 4×MIC, 2×MIC, 1×MIC and 0.5×MIC , respectively. The MHB medium with no compound was used as a control. Then, the overnight culture of S. aureus ATCC 25923 cells was added to the medium at 1:1,000. The plate was incubated with shaking in SpectraMax iD3 (MOLECULAR DEVICES) at 30 ℃. OD600 was measured every 30 min for 36 hours. To analyze the lysis, 1mL of S. aureus ATCC 25923 culture (OD600 1.0) was treated with massatide A or vancomycin (10×MIC) for 24h. An untreated sample was used as a negative control. […]
(§2) Experiments were performed in triplicate. […]

S. aureus ATCC 25923 [11] = test: Time-dependent killing assay; assay type: cell-based, Staphylococcus aureus; conditions: time-killing assay
Procedure: Time-dependent killing assay
An overnight culture of S. aureus ATCC 25923 cells was diluted at 1:10,000 in MHB medium and incubated at 37 ℃, 200 rpm for 2 hours to reach the early exponential.
Then, massatide A or vancomycin was added to the culture at the concentration of 10×MIC. Bacteria were still cultivated at 37 ℃, 200 rpm. Culture with no antibiotics was used as a negative control. 10 μL aliquots were removed at intervals, centrifuged, and resuspended in 1 ml PBS. Serially diluted (10-fold) suspensions were plated on MHB agar and incubated at 37 ℃ overnight for counting of colony-forming units.
as §2

S. aureus ATCC 25923 [12] = conditions: 25 days of serial passaging, control antibiotic
Procedure: was used as a negative control.
Experiments were performed in triplicate.
The experiment was performed in triplicate.

## C[C@H]1COc2c(N3CCN(C)CC3)c(F)cc3c(=O)c(C(=O)O)cn1c23 [Levofloxacin, reference compound]
[1]
  MIC: 8 µg/mL (≈ 22.1 µM)
[2]
  MIC: 0.06 µg/mL (≈ 0.166 µM)
[3]
  MIC: 1 µg/mL (≈ 2.77 µM)
[4]
  MIC: 0.25 µg/mL (≈ 0.692 µM)
[5]
  MIC: 0.5 µg/mL (≈ 1.38 µM)
LRSA 20-1
  MIC: 32 µg/mL (≈ 88.6 µM)
MRSA 15-1
  MIC: 16 µg/mL (≈ 44.3 µM)
MRSA ATCC33591
  MIC: 0.25 µg/mL (≈ 0.692 µM)
MRSA ATCC43300
  MIC: 0.25 µg/mL (≈ 0.692 µM)
VMSA ATCC700699
  MIC: 64 µg/mL (≈ 177 µM)
VMSA ATCC700788
  MIC: 32 µg/mL (≈ 88.6 µM)
LREfa 20-1
  MIC: 32 µg/mL (≈ 88.6 µM)
VREfa ATCC51575
  MIC: 0.5 µg/mL (≈ 1.38 µM)

## CN[C@H](CC(C)C)C(=O)N[C@H]1C(=O)N[C@@H](CC(N)=O)C(=O)N[C@H]2C(=O)N[C@H]3C(=O)N[C@H](C(=O)N[C@H](C(=O)O)c4cc(O)cc(O)c4-c4cc3ccc4O)[C@H](O)c3ccc(c(Cl)c3)Oc3cc2cc(c3O[C@@H]2O[C@H](CO)[C@@H](O)[C@H](O)[C@H]2O[C@H]2C[C@](C)(N)[C@H](O)[C@H](C)O2)Oc2ccc(cc2Cl)[C@H]1O [Vancomycin, reference compound]
Bacillus subtilis 168
  MIC: 0.125 µg/mL (≈ 0.0863 µM)
[6]
  MIC: 2 µg/mL (≈ 1.38 µM)
[7]
  MIC: 1 µg/mL (≈ 0.69 µM)
[8]
  MIC: 0.125 µg/mL (≈ 0.0863 µM)
[9]
  MIC: 1 µg/mL (≈ 0.69 µM)
S. aureus ATCC 25923 [10]
  lysis of the cell culture: the same as vancomycin
S. aureus ATCC 25923 [11]; time 0 h, log of mean of 3 replicates
  log(CFU/mL): 6.907 log(CFU/mL)
S. aureus ATCC 25923 [11]; time 0 h, mean of 3 replicates
  CFU/mL: 8080000 CFU/mL
S. aureus ATCC 25923 [11]; time 0 h, replicate 1
  CFU/mL: 8440000 CFU/mL
  log(CFU/mL): 6.926 log(CFU/mL)
S. aureus ATCC 25923 [11]; time 0 h, replicate 2
  CFU/mL: 8020000 CFU/mL
  log(CFU/mL): 6.904 log(CFU/mL)
S. aureus ATCC 25923 [11]; time 0 h, replicate 3
  CFU/mL: 7780000 CFU/mL
  log(CFU/mL): 6.891 log(CFU/mL)
S. aureus ATCC 25923 [11]; time 1 h, log of mean of 3 replicates
  log(CFU/mL): 6.695 log(CFU/mL)
S. aureus ATCC 25923 [11]; time 1 h, mean of 3 replicates
  CFU/mL: 4950000 CFU/mL
S. aureus ATCC 25923 [11]; time 1 h, replicate 1
  CFU/mL: 5360000 CFU/mL
  log(CFU/mL): 6.729 log(CFU/mL)
S. aureus ATCC 25923 [11]; time 1 h, replicate 2
  CFU/mL: 5200000 CFU/mL
  log(CFU/mL): 6.716 log(CFU/mL)
S. aureus ATCC 25923 [11]; time 1 h, replicate 3
  CFU/mL: 4290000 CFU/mL
  log(CFU/mL): 6.632 log(CFU/mL)
S. aureus ATCC 25923 [11]; time 3 h, log of mean of 3 replicates
  log(CFU/mL): 6.685 log(CFU/mL)
S. aureus ATCC 25923 [11]; time 3 h, mean of 3 replicates
  CFU/mL: 4836667 CFU/mL
S. aureus ATCC 25923 [11]; time 3 h, replicate 1
  CFU/mL: 4940000 CFU/mL
  log(CFU/mL): 6.694 log(CFU/mL)
S. aureus ATCC 25923 [11]; time 3 h, replicate 2
  CFU/mL: 4850000 CFU/mL
  log(CFU/mL): 6.686 log(CFU/mL)
S. aureus ATCC 25923 [11]; time 3 h, replicate 3
  CFU/mL: 4720000 CFU/mL
  log(CFU/mL): 6.674 log(CFU/mL)
S. aureus ATCC 25923 [11]; time 7 h, log of mean of 3 replicates
  log(CFU/mL): 5.899 log(CFU/mL)
S. aureus ATCC 25923 [11]; time 7 h, mean of 3 replicates
  CFU/mL: 791667 CFU/mL
S. aureus ATCC 25923 [11]; time 7 h, replicate 1
  CFU/mL: 695000 CFU/mL
  log(CFU/mL): 5.842 log(CFU/mL)
S. aureus ATCC 25923 [11]; time 7 h, replicate 2
  CFU/mL: 770000 CFU/mL
  log(CFU/mL): 5.886 log(CFU/mL)
S. aureus ATCC 25923 [11]; time 7 h, replicate 3
  CFU/mL: 910000 CFU/mL
  log(CFU/mL): 5.959 log(CFU/mL)
S. aureus ATCC 25923 [11]; time 26 h, log of mean of 3 replicates
  log(CFU/mL): 3.724 log(CFU/mL)
S. aureus ATCC 25923 [11]; time 26 h, mean of 3 replicates
  CFU/mL: 5300 CFU/mL
S. aureus ATCC 25923 [11]; time 26 h, replicate 1
  CFU/mL: 5500 CFU/mL
  log(CFU/mL): 3.74 log(CFU/mL)
S. aureus ATCC 25923 [11]; time 26 h, replicate 2
  CFU/mL: 5400 CFU/mL
  log(CFU/mL): 3.732 log(CFU/mL)
S. aureus ATCC 25923 [11]; time 26 h, replicate 3
  CFU/mL: 5000 CFU/mL
  log(CFU/mL): 3.699 log(CFU/mL)
S. aureus ATCC 25923 [12]
  shift of MIC during serial passaging: absence of a shift

— publication PMC11162475, “Rule-based omics mining reveals antimicrobial macrocyclic peptides against drug-resistant clinical isolates” (Nature Communications, 2024)
